Assay results published in PMC9001978, “Determining the Effects of Differential Expression of GRKs and β-arrestins on CLR-RAMP Agonist Bias” (Frontiers in Physiology, 2022).

What was measured:
[1] = target: T1, CLR-Nluc in complex with FLAG-RAMP1 (CGRP receptor) (UniProt Q16602 23-461; O60894 27-148)
T1 construct: calcitonin-like receptor (CLR), direct C-terminal in-frame fusion to NanoLuc, in pcDNA3.1(-); receptor activity modifying protein 1 (RAMP1), pcDNA3.1(+)FLAG-RAMP, described in Weston et al., 2016 and Harris et al., 2021; Harris et al., 2021; also called CLR-RAMP1; calcitonin-like receptor with receptor activity modifying protein 1; source: HEK293T, transfected, in living cells; not shown: …

[2] = tested on: HEK293T cells; test: cAMP accumulation in HEK293T cells with endogenous CLR and RAMPs; assay type: cell-based; settings: far lower potency than expected of CLR with any RAMP
[3] = target: T2, CLR-RAMP1 (Homo sapiens, UniProt O60894+Q16602); test: cAMP accumulation at CLR-RAMP1
[4] = target: T2, CLR-RAMP1; test: β-arrestin1 recruitment to CLR-RAMP1 (BRET); settings: HEK293T, n = 3
[5] = target: T3, CLR-RAMP3 (Homo sapiens, UniProt O60896+Q16602); test: β-arrestin1 recruitment to CLR-RAMP3 (BRET); settings: HEK293T, n = 3
[6] = target: T2, CLR-RAMP1; test: β-arrestin2 recruitment to CLR-RAMP1 (BRET); settings: HEK293T, n = 3
[7] = target: T3, CLR-RAMP3; test: β-arrestin2 recruitment to CLR-RAMP3 (BRET); settings: HEK293T, n = 3
[8] = target: T2, CLR-RAMP1; test: Internalisation of CLR-RAMP1 (BRET CLR-Nluc / RIT-Venus); settings: HEK293T, CLR-Nluc + FLAG-RAMP1, RIT-Venus BRET; mean ± SEM, n = 3-4
[9] = target: T3, CLR-RAMP3; test: Internalisation of CLR-RAMP3 (BRET CLR-Nluc / RIT-Venus); settings: HEK293T, CLR-Nluc + FLAG-RAMP3, RIT-Venus BRET; mean ± SEM, n = 4-5
[10] = target: T4, CLR-Nluc in complex with FLAG-RAMP2 (adrenomedullin 1 receptor) (UniProt Q16602 23-461; O60895 43-175); test: FRET or BRET; living HEK293T cells transfected with CLR-Nluc (donor), FLAG-RAMP1/2/3 and β-arrestin1/2-YFP (acceptor); 5 μM coelenterazine-h; stimulated with AM, 1 μM to 10 pM; BRET ratio 460/530 nm read for at least 20 min; settings: partners not purified
T4 construct: calcitonin-like receptor (CLR), direct C-terminal in-frame fusion to NanoLuc, in pcDNA3.1(-); receptor activity modifying protein 2 (RAMP2), pcDNA3.1(+)FLAG-RAMP, described in Weston et al., 2016 and Harris et al., 2021; Harris et al., 2021; also called CLR-RAMP2; AM1R; source: HEK293T, transfected, in living cells; not shown: NanoLuc, C-terminal, kept; FLAG, N-terminal, kept
T4 sequence (Q16602 23-461, chain 1 of 2): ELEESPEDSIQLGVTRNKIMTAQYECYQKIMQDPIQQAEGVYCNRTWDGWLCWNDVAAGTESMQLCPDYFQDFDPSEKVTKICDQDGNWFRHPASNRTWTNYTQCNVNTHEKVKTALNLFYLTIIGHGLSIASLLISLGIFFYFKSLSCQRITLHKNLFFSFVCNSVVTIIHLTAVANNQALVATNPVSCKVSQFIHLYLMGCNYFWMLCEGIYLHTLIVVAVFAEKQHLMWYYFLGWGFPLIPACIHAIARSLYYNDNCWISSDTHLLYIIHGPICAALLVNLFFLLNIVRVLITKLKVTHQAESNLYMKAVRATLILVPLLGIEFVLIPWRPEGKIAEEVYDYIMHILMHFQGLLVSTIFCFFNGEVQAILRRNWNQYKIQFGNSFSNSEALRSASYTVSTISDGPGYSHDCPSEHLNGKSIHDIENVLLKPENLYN
T4 sequence (O60895 43-175, chain 2 of 2): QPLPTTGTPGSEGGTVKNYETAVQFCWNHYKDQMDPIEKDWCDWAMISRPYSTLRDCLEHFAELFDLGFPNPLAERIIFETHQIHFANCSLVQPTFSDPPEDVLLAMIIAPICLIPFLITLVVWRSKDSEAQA

T3 sequence (Q16602 23-461): as the sequence (Q16602 23-461, chain 1 of 2) above
T3 sequence (O60896 24-148): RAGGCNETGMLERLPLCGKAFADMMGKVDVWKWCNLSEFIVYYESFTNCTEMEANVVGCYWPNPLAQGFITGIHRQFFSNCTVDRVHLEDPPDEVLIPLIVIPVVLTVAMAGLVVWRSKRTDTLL
T2 sequence (Q16602 23-461): as the sequence (Q16602 23-461, chain 1 of 2) above
T2 sequence (O60894 27-148): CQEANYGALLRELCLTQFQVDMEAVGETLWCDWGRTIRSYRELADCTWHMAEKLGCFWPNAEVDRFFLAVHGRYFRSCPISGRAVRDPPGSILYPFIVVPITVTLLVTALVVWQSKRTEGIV
T1 sequence (Q16602 23-461, chain 1 of 2): as the sequence (Q16602 23-461, chain 1 of 2) above
T1 sequence (O60894 27-148, chain 2 of 2): as the sequence (O60894 27-148) above

## adrenomedullin 2 (from UniProt Q7Z4H4 101-148) (peptide)
[1]
  cAMP accumulation, Emax, cells pretreated with DMSO (vehicle) (% of the response to 100 μM forskolin): 79.8
  cAMP accumulation, Emax, cells pretreated with barbadin (% of the response to 100 μM forskolin): 47.2
  cAMP accumulation, pEC50, cells pretreated with DMSO (vehicle): 6.34
  cAMP accumulation, pEC50, cells pretreated with barbadin: 4.93

## CC[C@H](C)[C@H](NC(=O)[C@H](CCC(N)=O)NC(=O)[C@H](Cc1c[nH]cn1)NC(=O)[C@H](C)NC(=O)[C@H](CC(C)C)NC(=O)[C@H](CCCCN)NC(=O)[C@H](CCC(N)=O)NC(=O)[C@@H](NC(=O)[C@@H](NC(=O)[C@@H]1CSSC[C@H](NC(=O)CNC(=O)[C@H](Cc2ccccc2)NC(=O)[C@H](CO)NC(=O)[C@H](CCCNC(=N)N)NC(=O)[C@H](CC(C)C)NC(=O)CNC(=O)[C@H](CCC(N)=O)NC(=O)[C@H](Cc2ccccc2)NC(=O)[C@H](CC(N)=O)NC(=O)[C@H](CC(N)=O)NC(=O)[C@H](CCSC)NC(=O)[C@H](CO)NC(=O)[C@H](CCC(N)=O)NC(=O)[C@H](CCCNC(=N)N)NC(=O)[C@@H](N)Cc2ccc(O)cc2)C(=O)N[C@@H](CCCNC(=N)N)C(=O)N[C@@H](Cc2ccccc2)C(=O)NCC(=O)N[C@@H]([C@@H](C)O)C(=O)N1)[C@@H](C)O)C(C)C)C(=O)N[C@@H](Cc1ccc(O)cc1)C(=O)N[C@@H](CCC(N)=O)C(=O)N[C@@H](Cc1ccccc1)C(=O)N[C@H](C(=O)N[C@@H](CC(=O)O)C(=O)N[C@@H](CCCCN)C(=O)N[C@@H](CC(=O)O)C(=O)N[C@@H](CCCCN)C(=O)N[C@@H](CC(=O)O)C(=O)N[C@@H](CC(N)=O)C(=O)N[C@H](C(=O)N[C@@H](C)C(=O)N1CCC[C@H]1C(=O)N[C@@H](CCCNC(=N)N)C(=O)N[C@@H](CO)C(=O)N[C@@H](CCCCN)C(=O)N[C@H](C(=O)N[C@@H](CO)C(=O)N1CCC[C@H]1C(=O)N[C@@H](CCC(N)=O)C(=O)NCC(=O)N[C@@H](Cc1ccc(O)cc1)C(N)=O)[C@@H](C)CC)C(C)C)[C@@H](C)O [AM, adrenomedullin]
[2]
  cAMP response via endogenous low levels of CLR and RAMPs: small response
[3]; HEK293T, CLR-Nluc + FLAG-RAMP1, 30 min stimulation, LANCE ultra, mean ± SEM, n = 3-4
  Emax, cAMP accumulation: 84.7 ± 3.0 percentage 100 μM forskolin
[3]; HEK293T, GRK2 overexpressed, 30 min, n = 3
  Emax, cAMP accumulation: 61.6 ± 3.7 percentage 100μM forskolin
[3]; HEK293T, GRK3 overexpressed, 30 min, n = 3
  Emax, cAMP accumulation: 46.5 ± 2.9 percentage 100μM forskolin
[3]; HEK293T, GRK4 overexpressed, 30 min, n = 3
  Emax, cAMP accumulation: 51.3 ± 5.3 percentage 100μM forskolin
[3]; HEK293T, GRK5 overexpressed, 30 min, n = 3
  Emax, cAMP accumulation: 40.0 ± 4.8 percentage 100μM forskolin
[3]; HEK293T, GRK6 overexpressed, 30 min, n = 3
  Emax, cAMP accumulation: 58.9 ± 7.4 percentage 100μM forskolin
[3]; HEK293T, β-arrestin1 overexpressed, 500 μM IBMX, mean ± SEM, n = 4
  Emax, cAMP accumulation: 98.6 ± 2.4 percentage 100 μM forskolin
[3]; HEK293T, β-arrestin2 overexpressed, 500 μM IBMX, mean ± SEM, n = 3-4
  Emax, cAMP accumulation: 99.3 ± 2.1 percentage 100 μM forskolin
[3]; HEK293 cells, 500 μM IBMX, mean ± SEM, n = 4
  Emax, cAMP accumulation: 81.1 ± 7.9 percentage 100 μM forskolin
[3]; HEK293Δβ-arr1/2 cells, 500 μM IBMX, mean ± SEM, n = 4
  Emax, cAMP accumulation: 89.0 ± 5.4 percentage 100 μM forskolin
[3]; pre-treated with 100 μM barbadin, 30 min, mean ± SEM, n = 5-6
  Emax, cAMP accumulation: ~91.4 ± 5.5 percentage 100μM forskolin
[3]; pre-treated with 1% DMSO, 30 min, mean ± SEM, n = 5-6
  Emax, cAMP accumulation: 88.0 ± 5.2 percentage 100μM forskolin
[4]; CLR-Nluc + FLAG-RAMP1 + β-arrestin1-YFP, BRET, mean ± SEM
  Emax, β-arrestin1 recruitment: ~63 ± 14 BRET units (x10^-3)
[4]; GRK2 overexpressed
  Emax, β-arrestin1 recruitment: ~57 ± 7 BRET units (x10^-3)
[4]; GRK3 overexpressed
  Emax, β-arrestin1 recruitment: ~43 ± 5 BRET units (x10^-3)
[4]; GRK4 overexpressed
  Emax, β-arrestin1 recruitment: ~39 ± 7 BRET units (x10^-3)
[4]; GRK6 overexpressed
  Emax, β-arrestin1 recruitment: ~11 ± 2 BRET units (x10^-3)
[4]; GRK series: Vector
  Emax, β-arrestin1 recruitment: ~63 ± 14 BRET units (x10^-3)
[5]; CLR-Nluc + FLAG-RAMP3 + β-arrestin1-YFP, BRET, mean ± SEM
  Emax, β-arrestin1 recruitment: 8 ± 1 BRET units (x10^-3)
[5]; GRK2 overexpressed
  Emax, β-arrestin1 recruitment: 6 ± 1 BRET units (x10^-3)
[5]; GRK3 overexpressed
  Emax, β-arrestin1 recruitment: 5 ± 1 BRET units (x10^-3)
[5]; GRK4 overexpressed
  Emax, β-arrestin1 recruitment: 4 ± 1 BRET units (x10^-3)
[5]; GRK series: Vector
  Emax, β-arrestin1 recruitment: 7 ± 1 BRET units (x10^-3)
[6]; CLR-Nluc + FLAG-RAMP1 + β-arrestin2-YFP, BRET, mean ± SEM
  Emax, β-arrestin2 recruitment: ~98 ± 10 BRET units (x10^-3)
[6]; GRK2 overexpressed
  Emax, β-arrestin2 recruitment: ~54 ± 4 BRET units (x10^-3)
[6]; GRK3 overexpressed
  Emax, β-arrestin2 recruitment: ~47 ± 3 BRET units (x10^-3)
[6]; GRK4 overexpressed
  Emax, β-arrestin2 recruitment: ~48 ± 3 BRET units (x10^-3)
[6]; GRK5 overexpressed
  Emax, β-arrestin2 recruitment: 11 ± 1 BRET units (x10^-3)
[6]; GRK series: Vector
  Emax, β-arrestin2 recruitment: ~98 ± 10 BRET units (x10^-3)
[7]; CLR-Nluc + FLAG-RAMP3 + β-arrestin2-YFP, BRET, mean ± SEM
  Emax, β-arrestin2 recruitment: 11 ± 1 BRET units (x10^-3)
[7]; GRK2 overexpressed
  Emax, β-arrestin2 recruitment: 8 ± 1 BRET units (x10^-3)
[7]; GRK3 overexpressed
  Emax, β-arrestin2 recruitment: 11 ± 2 BRET units (x10^-3)
[7]; GRK4 overexpressed
  Emax, β-arrestin2 recruitment: 8 ± 1 BRET units (x10^-3)
[7]; GRK series: Vector
  Emax, β-arrestin2 recruitment: 11 ± 1 BRET units (x10^-3)
[8]
  Emax, internalisation: ~-44 ± 42 BRET units (x10^-3)
[9]
  Emax, internalisation: -5 ± 1 BRET units (x10^-3)

B1: β-arrestin1-YFP (natural protein, UniProt P49407 1-418, looked up)
chain: MGDKGTRVFKKASPNGKLTVYLGKRDFVDHIDLVDPVDGVVLVDPEYLKERRVYVTLTCAFRYGREDLDVLGLTFRKDLFVANVQSFPPAPEDKKPLTRLQERLIKKLGEHAYPFTFEIPPNLPCSVTLQPGPEDTGKACGVDYEVKAFCAENLEEKIHKRNSVRLVIRKVQYAPERPGPQPTAETTRQFLMSDKPLHLEASLDKEIYYHGEPISVNVHVTNNTNKTVKKIKISVRQYADICLFNTAQYKCPVAMEEADDTVAPSSTFCKVYTLTPFLANNREKRGLALDGKLKHEDTNLASSTLLREGANREILGIIVSYKVKVKLVVSRGGLLGDLASSDVAVELPFTLMHPKPKEEPPHREVPENETPVDTNLIELDTNDDDIVFEDFARQRLKGMKDDKEEEEDGTGSPQLNNR
notes: β-arrestin1 with an in-frame C-terminal YFP (Mackie et al., 2019); source: HEK293T, transfected, in living cells; not shown: YFP, C-terminal, kept
[10]
  pEC50 of AM for recruitment (BRET): 7.57 ± 0.17
